Test results published in patent publication US10851073B2, “Protein tyrosine phosphatase inhibitors and methods of use thereof” (Calico Life Sciences LLC, priority 2019, dated 2020).

Legend:
[1] = target: T1, His tagged PTPN2 (TC45) protein (Homo sapiens, UniProt P17706); experiment: Mobility shift assay used to determine potency of PTPN2 inhibitors; type: biochemical; conditions: enzyme 0.5 nM, substrate 2 μM; read-out: PTPN2 MSA IC50
T1 construct: made in house
T1 sequence (P17706 with tags, fused parts or gaps isoform P17706-2): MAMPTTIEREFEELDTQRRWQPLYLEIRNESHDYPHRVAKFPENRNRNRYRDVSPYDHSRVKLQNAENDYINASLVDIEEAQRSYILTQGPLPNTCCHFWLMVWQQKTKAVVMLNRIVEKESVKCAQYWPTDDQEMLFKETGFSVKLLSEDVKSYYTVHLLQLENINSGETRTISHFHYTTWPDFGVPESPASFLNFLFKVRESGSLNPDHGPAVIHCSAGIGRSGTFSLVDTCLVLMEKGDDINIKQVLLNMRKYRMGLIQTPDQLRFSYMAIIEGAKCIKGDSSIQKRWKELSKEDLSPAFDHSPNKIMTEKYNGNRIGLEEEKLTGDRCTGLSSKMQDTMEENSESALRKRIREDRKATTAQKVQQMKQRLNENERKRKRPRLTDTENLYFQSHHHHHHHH
Experimental: Example 227: Mobility Shift Assay Used to Determine Potency of PTPN2 Inhibitors
Compound activity was determined using in house His tagged PTPN2 (TC45) protein (SEQ ID NO: 1) in an in vitro enzymatic reaction. The enzymatic assay used to determine activity was a mobility shift assay using a LabChip EZ Reader by Caliper Life Sciences. The enzymatic reaction was carried out in assay buffer (50 mM HEPES pH 7.5, 1 mM EGTA, 10 mM EDTA, 0.01% Tween® 20, and 2 mM DTT). The compounds were dispensed on a white 384 well ProxiPlate™ (PerkinElmer Catalog #6008289) plate using the Labcyte Echo at varying concentrations (12 point, 1:3 dilution). The enzyme (at 0.5 nM) was incubated with compound for 10 minutes at room temperature. Then the substrate (phosphorylated insulin receptor probe sequence: ((OG488)-(NH—CH2—CH2—O—CH2—CH2—O—CH2—CO)-T-R-D-I-(PY)-E-T-D-Y-Y-R-K-K-NH2) (SEQ ID NO: 2) was added at 2 μM to the plates and incubated for another 10 minutes at room temperature. Finally, a quench solution (water and 4-bromo-3-(2-oxo-2-propoxyethoxy)-5-(3-{[1-(phenylmethanesulfonyl)piperidin-4-yl]amino}phenyl)thiophene-2-carboxylic acid) was added to the plates, which were then run on the EZ Reader (excitation 488 nm, emission 530 nm) to measure % conversion (the amount of phosphorylated substrate which was de-phosphorylated by PTPN2). […] The % inhibition was then used to calculate the IC50 values.

[2] = target: T2, His tagged full-length PTPN1 protein (Homo sapiens, UniProt P18031); experiment: Mobility shift assay (MSA) used to determine potency of PTPN1 inhibitors; type: biochemical; conditions: enzyme 0.5 nM, substrate 2 μM
T2 construct: made in house
T2 sequence (P18031 with tags, fused parts or gaps): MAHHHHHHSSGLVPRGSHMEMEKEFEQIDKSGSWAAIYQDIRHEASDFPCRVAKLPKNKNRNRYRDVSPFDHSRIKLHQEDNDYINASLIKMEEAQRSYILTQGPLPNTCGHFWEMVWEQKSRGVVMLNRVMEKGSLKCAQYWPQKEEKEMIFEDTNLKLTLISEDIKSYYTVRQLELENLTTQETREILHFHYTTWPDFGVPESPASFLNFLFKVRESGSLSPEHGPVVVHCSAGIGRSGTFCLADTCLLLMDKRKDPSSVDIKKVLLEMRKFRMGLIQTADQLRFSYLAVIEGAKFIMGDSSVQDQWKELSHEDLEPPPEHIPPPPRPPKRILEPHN
Experimental: Example 228: Mobility Shift Assay (MSA) Used to Determine Potency of PTPN1 Inhibitors
Compound activity was determined using in house His tagged full-length PTPN1 protein (SEQ ID NO: 3) in an in vitro enzymatic reaction. The enzymatic assay used to determine activity is a mobility shift assay using a LabChip EZ Reader by Caliper Life Sciences. The enzymatic reaction was carried out in assay buffer (50 mM HEPES pH 7.5, 1 mM EGTA, 10 mM EDTA, 0.01% Tween® 20, and 2 mM DTT). The compounds were dispensed on a white 384 well ProxiPlate™ (PerkinElmer Cat^# 6008289) plate using a Labcyte Echo® liquid handler at varying concentrations (12 point, 1:3 dilution). The enzyme (at 0.5 nM) was incubated with compound for 10 minutes at room temperature. Then the substrate (phosphorylated insulin receptor probe sequence: ((OG488)-(NH—CH2—CH2—O—CH2—CH2—O—CH2—CO)-T-R-D-I-(PY)-E-T-D-Y-Y-R-K-K-NH2) (SEQ ID NO: 2) was added at 2 μM to the plates and incubated for another 10 minutes at room temperature. Finally, a quench solution (water and 4-bromo-3-(2-oxo-2-propoxyethoxy)-5-(3-{[1-(phenylmethanesulfonyl)piperidin-4-yl]amino}phenyl)thiophene-2-carboxylic acid) was added to the plates, which were then run on the EZ Reader (excitation 488 nm, emission 530 nm) to measure % conversion (the amount of phosphorylated substrate which was de-phosphorylated by PTPN1). […] The % inhibition was then used to calculate the IC50 values.

| SMILES | IC50 [1] [nM] | IC50 [2] [nM] |
| --- | --- | --- |
| O=C1CN(c2c(O)cc3c(c2F)CN(CCC24CCC(CC2)C4)CC3)S(=O)(=O)N1 [Compound 239, 5-{2-[2-(bicyclo[2.2.1]heptan-1-yl)ethyl]-8-fluoro-6-hydroxy-1,2,3,4-tetrahydroisoquinolin-7-yl}-1λ^6,2,5-thiadiazolidine-1,1,3-trione] | 1 to 10 | 1 to 10 |
| O=C1CN(c2c(O)cc3c(c2F)CN(C[C@H]2C[C@@H]2c2ccncc2)CC3)S(=O)(=O)N1 (racemic) [Compound 248, 5-(8-fluoro-6-hydroxy-2-{[rac-(1R,2R)-2-(pyridin-4-yl)cyclopropyl]methyl}-1,2,3,4-tetrahydroisoquinolin-7-yl)-1λ^6,2,5-thiadiazolidine-1,1,3-trione] | 10 to 100 | 10 to 100 |
| CC(C)CC(=N)NC1CCc2cc(O)c(N3CC(=O)NS3(=O)=O)c(F)c2C1 (stereo not shown) [Compound 195, N-[8-fluoro-6-hydroxy-7-(1,1,4-trioxo-1λ^6,2,5-thiadiazolidin-2-yl)-1,2,3,4-tetrahydronaphthalen-2-yl]-3-methylbutanimidamide] | 10 to 100 | 10 to 100 |
| CC(C)CNCC1Cc2cc(O)c(N3CC(=O)NS3(=O)=O)c(F)c2C1 (stereo not shown) [Compound 275, 5-(4-fluoro-6-hydroxy-2-{[(2-methylpropyl)amino]methyl}-2,3-dihydro-1H-inden-5-yl)-1λ^6,2,5-thiadiazolidine-1,1,3-trione] | 10 to 100 | 10 to 100 |
| CC(C)[C@@H]1CN(C2CCc3cc(O)c(N4CC(=O)NS4(=O)=O)c(F)c3C2)CCO1 (stereo partly drawn) [Compound 182, 5-{1-fluoro-3-hydroxy-7-[(2R)-2-(propan-2-yl)morpholin-4-yl]-5,6,7,8-tetrahydronaphthalen-2-yl}-1λ^6,2,5-thiadiazolidine-1,1,3-trione] | 10 to 100 | 10 to 100 |
| CC(C)OCCNC1CCc2cc(O)c(N3CC(=O)NS3(=O)=O)c(F)c2C1 (stereo not shown) [Compound 186, 5-[1-fluoro-3-hydroxy-7-({2-[(propan-2-yl)oxy]ethyl}amino)-5,6,7,8-tetrahydronaphthalen-2-yl]-1λ^6,2,5-thiadiazolidine-1,1,3-trione] | 10 to 100 | 10 to 100 |
| O=C1CN(c2c(O)cc3c(c2F)CC(CNCCCC2CC2)C3)S(=O)(=O)N1 (stereo not shown) [Compound 274, 5-(2-{[(3-cyclopropylpropyl)amino]methyl}-4-fluoro-6-hydroxy-2,3-dihydro-1H-inden-5-yl)-1λ^6,2,5-thiadiazolidine-1,1,3-trione] | 1 to 10 | 1 to 10 |
| O=C1CN(c2c(O)cc3c(c2F)CC(NCCC2CC2)CC3)S(=O)(=O)N1 (stereo not shown) [Compound 101, 5-{7-[(2-cyclopropylethyl)amino]-1-fluoro-3-hydroxy-5,6,7,8-tetrahydronaphthalen-2-yl}-1λ^6,2,5-thiadiazolidine-1,1,3-trione] | 1 to 10 | 1 to 10 |
| O=C1CN(c2c(O)cc3c(c2F)C[C@@H](NCCCC(F)(F)F)CC3)S(=O)(=O)N1 (single isomer, unassigned) [Compound 147] | 10 to 100 | 10 to 100 |
| CC(O)CCOC(=O)N1Cc2c(cc(O)c(N3CC(=O)NS3(=O)=O)c2F)C(F)(F)C1 (stereo not shown) [Compound 304, 3-hydroxybutyl 4,4,8-trifluoro-6-hydroxy-7-(1,1,4-trioxo-1λ^6,2,5-thiadiazolidin-2-yl)-3,4-dihydroisoquinoline-2(1H)-carboxylate] | > 100 | > 100 |
| CC(C)CCNC1CCc2c(cc(O)c(N3CC(=O)NS3(=O)=O)c2F)C1 (stereo not shown) [Compound 313, 5-{1-fluoro-3-hydroxy-6-[(3-methylbutyl)amino]-5,6,7,8-tetrahydronaphthalen-2-yl}-1λ^6,2,5-thiadiazolidine-1,1,3-trione] | 1 to 10 | 10 to 100 |
| CC(C)(O)CCNC1CCc2c(cc(O)c(N3CC(=O)NS3(=O)=O)c2F)C1 (stereo not shown) [Compound 315, 5-{1-fluoro-3-hydroxy-6-[(3-hydroxy-3-methylbutyl)amino]-5,6,7,8-tetrahydronaphthalen-2-yl}-1λ^6,2,5-thiadiazolidine-1,1,3-trione] | 1 to 10 | 10 to 100 |
| COC1CCc2c(F)c(O)c(N3CC(=O)NS3(=O)=O)c(F)c2C1 (stereo not shown) [Compound 114, 5-(1,4-difluoro-3-hydroxy-7-methoxy-5,6,7,8-tetrahydronaphthalen-2-yl)-1λ^6,2,5-thiadiazolidine-1,1,3-trione] | 10 to 100 | 10 to 100 |
| O=C1CN(c2c(O)cc3c(c2F)CC(OC(=O)Nc2ccccc2)CC3)S(=O)(=O)N1 (stereo not shown) [Compound 149, 8-fluoro-6-hydroxy-7-(1,1,4-trioxo-1λ^6,2,5-thiadiazolidin-2-yl)-1,2,3,4-tetrahydronaphthalen-2-yl Phenylcarbamate] | 1 to 10 | 10 to 100 |
| COC1CCc2c(cc(O)c(N3CC(=O)NS3(=O)=O)c2F)C1 (stereo not shown) [Compound 317, 5-(1-fluoro-3-hydroxy-6-methoxy-5,6,7,8-tetrahydronaphthalen-2-yl)-1λ^6,2,5-thiadiazolidine-1,1,3-trione] | 10 to 100 | > 100 |
| COCC(C)(C)CCNC1CCc2cc(O)c(N3CC(=O)NS3(=O)=O)c(F)c2C1 (stereo not shown) [Compound 121, 5-{1-fluoro-3-hydroxy-7-[(4-methoxy-3,3-dimethylbutyl)amino]-5,6,7,8-tetrahydronaphthalen-2-yl}-1λ^6,2,5-thiadiazolidine-1,1,3-trione] | 1 to 10 | 10 to 100 |
| O=C1CN(c2c(O)cc3c(c2F)CCC(NCCCC(F)F)C3)S(=O)(=O)N1 (stereo not shown) [Compound 311, 5-{6-[(4,4-difluorobutyl)amino]-1-fluoro-3-hydroxy-5,6,7,8-tetrahydronaphthalen-2-yl}-1λ^6,2,5-thiadiazolidine-1,1,3-trione] | 1 to 10 | 1 to 10 |
| Cc1noc(C)c1CNC1CCc2cc(O)c(N3CC(=O)NS3(=O)=O)c(F)c2C1 (stereo not shown) [Compound 287, 5-(7-{[(3,5-dimethyl-1,2-oxazol-4-yl)methyl]amino}-1-fluoro-3-hydroxy-5,6,7,8-tetrahydronaphthalen-2-yl)-1λ^6,2,5-thiadiazolidine-1,1,3-trione] | 10 to 100 | > 100 |
| O=C1CN(c2c(O)cc3c(c2F)CC(C2CCN(CC4CC4)C2)CC3)S(=O)(=O)N1 (mixture of isomers) [Compound 140, 5-{7-[1-(cyclopropylmethyl)pyrrolidin-3-yl]-1-fluoro-3-hydroxy-5,6,7,8-tetrahydronaphthalen-2-yl}-1λ^6,2,5-thiadiazolidine-1,1,3-trione] | 10 to 100 | 10 to 100 |
| C=CCC1(N)CCc2cc(O)c(N3CC(=O)NS3(=O)=O)c(F)c2C1 (stereo not shown) [Compound 240, 5-[7-amino-1-fluoro-3-hydroxy-7-(prop-2-en-1-yl)-5,6,7,8-tetrahydronaphthalen-2-yl]-1λ^6,2,5-thiadiazolidine-1,1,3-trione] | 10 to 100 | > 100 |
